Read-outs that look alike come from different tables or passages of the source.
Tests used:
C3aR = molecular target: T1, C3aR (Homo sapiens, UniProt Q16581); assay: Calcium mobilization assay in HMDM (agonist/antagonist activity); type: cell-based; settings: for Emax at 10 µM: read-out: % agonist
T1 construct: peripheral blood mononuclear cells were isolated from buffy coat (obtained from Australian Red Cross Blood Service, Kelvin Grove); endogenous in cells; host or cells: primary human monocyte-derived macrophages (HMDM) differentiated from CD14+ monocytes of donor buffy coat
T1 sequence (Q16581 1-482): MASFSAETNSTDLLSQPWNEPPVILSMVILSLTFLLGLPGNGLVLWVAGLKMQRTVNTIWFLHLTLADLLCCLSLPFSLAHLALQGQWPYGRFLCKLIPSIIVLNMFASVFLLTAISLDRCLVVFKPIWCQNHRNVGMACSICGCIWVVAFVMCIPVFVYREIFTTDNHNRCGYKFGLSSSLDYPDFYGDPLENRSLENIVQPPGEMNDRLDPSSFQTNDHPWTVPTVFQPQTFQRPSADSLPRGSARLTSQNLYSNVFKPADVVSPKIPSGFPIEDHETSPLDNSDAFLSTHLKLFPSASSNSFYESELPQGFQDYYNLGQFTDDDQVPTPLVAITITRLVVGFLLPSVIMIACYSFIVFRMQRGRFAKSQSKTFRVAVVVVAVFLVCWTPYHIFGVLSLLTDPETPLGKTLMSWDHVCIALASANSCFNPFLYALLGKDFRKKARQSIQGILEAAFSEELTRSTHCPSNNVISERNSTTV
Experimental: Harvested HMDM cells were washed with 0.9% NaCl solution by centrifugation at 2500 rpm for 5 min, followed by resuspension of the cell pellet with complete media. Cells were seeded at 5×10^4 cells/well in a 96-well black-wall, clear bottom plate (DKSH, Zurich), and left overnight to adhere at 37° C. On the day of the experiment, supernatant was removed and cells were incubated in dye loading buffer (Hank's Balanced Salt Solution (HBSS) with 4 μM Fluo-3, 25 μL pluronic acid, 1% fetal bovine serum (FBS) and 2.5 mM probenecid) for one hour at 37° C. Cells were then washed twice with HBSS and transferred to a Fluorostar spectrofluorimeter (BMG, Durham N.C.) for oxazole compound injection and fluorescence measurements.
Various compounds were examined in the calcium mobilization assay for agonist or antagonist activity compared to hC3a and to the known antagonist SB290157.
HMDMs were seeded into black-wall, clear bottom 96-well plates (Corning Incorporated, NY) at 50,000 cells/well and left to incubate at 37° C. with 5% CO2 overnight for cells to adhere. The medium was removed before being washed with the assay buffer (1×HBSS, 20 mM HEPES, 2.5 mM probenecid, pH 7.4). To each well was added 100 μL of dye-loading buffer made up of 12 mL calcium buffer, 1% FBS, 25 μL of Fluo-3 dye (final concentration of 4 μM) and 25 μL of 20% pluronic acid. The plate was covered in aluminium foil to protect the light-sensitive dye and left to incubate at 37° C. for 1 h. The dye-loading buffer was removed before the cells were washed with the assay buffer to remove excess loading dye. To each well was added 50 μL of fresh assay buffer before the plate was loaded into a FLIPR (Fluorescent Imaging Plate Reader) that can inject treatments and measure any calcium release. To generate agonist plots, calcium release was monitored for 300 seconds. To generate antagonist plots, calcium release was recorded for 900 seconds, which at the same time would allow incubation for the antagonists. After the initial incubation period, an agonist would be added and the response was recorded for 300 seconds. Intracellular release of calcium was recorded via fluorescence measurements at wavelength of 485 nm for excitation and 520 nm for emission.

C3a receptor (C3aR) = molecular target: T2, C3a receptor (C3aR) (Homo sapiens, UniProt Q16581); assay: Competitive binding with [^125I]-C3a in HMDM; settings: for remaining activity at 20 µM: 1 h, read-out: %[^125I]-C3a binding
T2 construct: peripheral blood mononuclear cells were isolated from buffy coat (obtained from Australian Red Cross Blood Service, Kelvin Grove); endogenous in cells; host or cells: primary human monocyte-derived macrophages (HMDM) differentiated from CD14+ monocytes of donor buffy coat
T2 sequence (Q16581 1-482): T1 sequence (Q16581 1-482)
Text: For HMDM, peripheral blood mononuclear cells were isolated from buffy coat (obtained from Australian Red Cross Blood Service, Kelvin Grove) using Ficoll-paque density centrifugation (GE Healthcare Bio-Science, Uppsala, Sweden). CD^14+ monocytes were positively selected using CD^14+ MACS magnetic beads (Miltenyi Biotech, Auburn, Calif., USA). […] Cells were harvested by gentle scraping in saline solution and replated for use on Day 7. […] Unbound radioactivity was removed by filtration through glass microfiber filters GF/B (Whatman Iner. […] The filter was washed 3 times with cold buffer (50 mM Tris-HCl) pH 7.4. […] The −log IC50 for each compound was calculated for separate experiments and express as an arithmetic mean standard error (SE). IC50 values were expressed as a geometric mean.

[1] = Table 9, Ca^2+ mobilization, HMDM
[2] = Table 9, Ca^2+ mobilization, HMDM, read-out: EC50
[3] = Table 6, competitive binding with [^125I]-C3a, HMDM
[4] = Table 6, competitive binding with [^125I]-C3a, HMDM, read-out: IC50 (converted)
[5] = Table 13, calcium release from HMDM, read-out: Antagonist Activity IC50
[6] = Table 10, HMDM, read-out: Antagonist Activity Ca^2+ IC50
[7] = Table 8, HMDM, read-out: Receptor Binding Affinity ^125I IC50
[8] = Table 6, competitive binding with [^125I]-C3a, HMDM, read-out: pIC50 ± SEM (converted)

| IC50 (C3a receptor (C3aR); [4]) [nM] | Structure (SMILES) | Emax at 10 µM (C3aR) [%] | remaining activity at 20 µM (C3a receptor (C3aR)) [%] | further results |
| --- | --- | --- | --- | --- |
| 26 | CC[C@H](C)[C@H](NC(=O)c1ccccc1)c1nc(C(=O)N[C@@H](CCCNC(=N)N)C(=O)O)co1 [Compound 6, Benzoyl Isoleucine Oxazole Arginine-OH] |  |  | pEC50 ± SEM (C3aR; [1]): 5.30 ± 0.18; EC50 (C3aR; [2]): 5000 nM; pIC50 ± SEM (C3a receptor (C3aR); [3]): 7.58 ± 0.07 |
| 35 | N=C(N)NCCC[C@H](NC(=O)c1ccc(C(c2ccccc2)c2ccccc2)s1)C(=O)NS(=O)(=O)c1ccccc1 [Compound 94, (S)-5-benzhydryl-N-(5-guanidino-1-oxo-1-(phenylsulfonamido)pentan-2-yl)thiophene-2-carboxamide] |  |  | IC50 (C3aR; [5]): 300 nM |
|  | N=C(N)NCCC[C@H](NC(=O)c1sc(C(c2ccccc2)c2ccccc2)nc1-c1ccccc1)C(=O)O [Compound 65, 2-Diphenylmethyl-4-phenyl thiazole-5-carboxyl-Arg-OH] |  |  | IC50 (C3aR; [6]): 67000 nM; IC50 (C3a receptor (C3aR); [7]): 3370 nM |
| 853 | N#CN=C(N)NCCC[C@H](NC(=O)c1ccc(C(c2ccccc2)c2ccccc2)s1)C(=O)O [Compound 95, (S)-2-(5-benzhydrylthiophene-2-carboxamido)-5-(2-cyanoguanidino)pentanoic acid] |  |  | IC50 (C3aR; [5]): 900 nM |
|  | COc1ccc(OC)c(CC(=O)N[C@@H](CC(C)C)c2nc(C(=O)N[C@@H](CCCNC(=N)N)C(=O)O)c(C)o2)c1 [Compound 44, 2,5-Dimethoxy-phenyl acetic acid-Leucine-5-Methyl-Oxazole-Arginine] | 69 | 42 |  |
|  | Cc1oc([C@H](CC(C)C)NC(=O)Cc2ccc(C(F)(F)F)cc2)nc1C(=O)N[C@@H](CCCNC(=N)N)C(=O)O [Compound 36, 4-(Trifluoromethyl)-phenylacetic acid-Leucine-5-Methyl-Oxazole-Arginine] | 50 | 61 |  |
| 606 | Cc1nc(C(c2ccccc2)c2ccccc2)oc1C(=O)N[C@@H](CCCNC(=N)N)C(=O)O [Compound 58, 2-Diphenylmethyl-4-methyl oxazole-5-carboxyl-Arg-OH] |  |  | IC50 (C3aR; [6]): 2900 nM; Apparent Agonist Activity pEC50 ± SE (symbol) (C3aR; Table 12): φ (compound showed no agonist activity up to 100 μM.); IC50 (C3a receptor (C3aR); [8]): 603 nM; IC50 (C3a receptor (C3aR); [7]): 12 nM; IC50 (C3a receptor (C3aR); Table 12, read-out: Receptor Binding Affinity IC50): 606 nM; -Log IC50 (C3a receptor (C3aR); Table 14, binding affinity for C3aR on HMDM): 7.0 |
|  | Cc1oc([C@H](CC(C)C)NC(=O)c2cc3ccccc3s2)nc1C(=O)N[C@@H](CCCNC(=N)N)C(=O)O [Compound 27, Benzothiophene-2-carboxylic acid-Leucine-5-Methyl-Oxazole-Arginin] | 62 | 14 |  |
|  | COc1ccc(CC(=O)N[C@@H](CC(C)C)c2nc(C(=O)N[C@@H](CCCNC(=N)N)C(=O)O)c(C)o2)cc1OC [Compound 43, 3,4-Dimethoxy-phenyl acetic acid-Leucine-5-Methyl-Oxazole-Arginine] | 67 | 65 |  |
|  | CC(C)C[C@H](NC(=O)OC(C)(C)C)c1nc(C(=O)N[C@@H](CCCNC(=N)N)C(=O)O)c(-c2ccccc2)o1 [Compound 50, Boc-Leucine-5-Phenyl-Oxazole-Arginine] |  |  | Apparent Antagonist Activity pEC50 ± SE (symbol) (C3aR; Table 11): * (The compounds show no agonist activity in calcium mobilisation assays up to 100 μM.); IC50 (C3aR; Table 11, Ca^2+ mobilisation, HMDM, read-out: Apparent Antagonist Activity IC50): 16.5 nM; IC50 (C3a receptor (C3aR); [8]): 37.2 nM; IC50 (C3a receptor (C3aR); Table 11, [^125I]-C3a, HMDM, read-out: Receptor Binding Affinity pIC50 ± SE (converted)): 37.2 nM |
| 12 | Cc1[nH]c([C@H](CC(C)C)NC(=O)c2c[nH]c3ccccc23)nc1C(=O)N[C@@H](CCCNC(=N)N)C(=O)O [Compound 79, 3-Indole carboxylic acid-Leucine-5-methyl-imidazole-Arginine-OH] |  |  | EC50 (C3aR; [2]): 15 nM |
|  | Cc1oc([C@H](CC(C)C)NC(=O)CC2CCCCC2)nc1C(=O)N[C@@H](CCCNC(=N)N)C(=O)O [Compound 33, Cyclohexyl acetic acid-Leucine-5-Methyl-Oxazole-Arginine] | 69 | 26 |  |
|  | COc1cccc(CC(=O)N[C@@H](CC(C)C)c2nc(C(=O)N[C@@H](CCCNC(=N)N)C(=O)O)c(C)o2)c1 [Compound 38, 3-Methoxy-phenylacetic acid-Leucine-5-Methyl-Oxazole-Arginin] | 87 | 41 |  |
|  | Cc1oc([C@H](CC(C)C)NC(=O)C2CCCCC2)nc1C(=O)N[C@@H](CCCNC(=N)N)C(=O)O [Compound 32, Cyclohexane carboxylic acid-Leucine-5-Methyl-Oxazole-Arginine] | 107 | 39 |  |
|  | COc1ccc(CCC(=O)N[C@@H](CC(C)C)c2nc(C(=O)N[C@@H](CCCNC(=N)N)C(=O)O)c(C)o2)cc1 [Compound 41, 3-(4-Methoxyphenyl)propionic acid-Leucine-5-Methyl-Oxazole-Arginine] | 44 | 44 |  |
| 5 | CC[C@H](C)[C@H](NC(=O)c1cncc(Br)c1)c1nc(C(=O)N[C@@H](CCCNC(=N)N)C(=O)O)co1 [Compound 20] |  |  | pEC50 ± SEM (C3aR; [1]): 7.76 ± 0.36; EC50 (C3aR; [2]): 17 nM; pIC50 ± SEM (C3a receptor (C3aR); [3]): 8.30 ± 0.10 |
|  | Cc1oc([C@H](CC(C)C)NC(=O)Cc2ccc(/N=N/c3ccccc3)cc2)nc1C(=O)N[C@@H](CCCNC(=N)N)C(=O)O [Compound 47, Phenyl hydrazine-Benzeneacetic acid-Leucine-5-Methyl-Oxazole-Arginine] | 48 | 49 |  |
|  | Cc1oc([C@H](CC(C)C)NC(=O)c2ccccn2)nc1C(=O)N[C@@H](CCCNC(=N)N)C(=O)O [Compound 29, Picolinic acid-Leucine-5-Methyl-Oxazole-Arginine] | 77 | 31 |  |
|  | Cc1oc([C@H](CC(C)C)NC(=O)CC(C)(C)C)nc1C(=O)N[C@@H](CCCNC(=N)N)C(=O)O [Compound 34, 3,3-Dimethylbutanoic acid-Leucine-5-Methyl-Oxazole-Arginine] | 70 | 44 |  |
| 31 | Cc1nc(C(c2ccccc2)c2ccccc2)n(C)c1C(=O)N[C@@H](CCCNC(=N)N)C(=O)O [Compound 98, 2-Benzhydryl-1,4-Dimethyl imidazole-5-carboxyl-Arginine] |  |  | EC50 (C3aR; [2]): 40 nM |
|  | N=C(N)NCCC[C@H](NC(=O)c1nc(C(c2ccccc2)c2ccccc2)[nH]c1-c1ccccc1)C(=O)O [Compound 62, 2-Diphenylmethyl-4-phenyl imidazole-5-carboxyl-Arg-OH] |  |  | EC50 (C3aR; Table 10, HMDM, read-out: Agonist Activity EC50): > 100000 nM; IC50 (C3aR; [6]): 600 nM; IC50 (C3a receptor (C3aR); [7]): 46 nM |
| 7.5 | CC(C)C[C@H](NC(=O)OC(C)(C)C)c1nc(C(=O)N[C@@H](CCCNC(=N)N)C(=O)NS(=O)(=O)c2ccccc2)co1 [Compound 92, tert-butyl ((S)-1-(4-(((S)-5-guanidino-1-oxo-1-(phenylsulfonamido)pentan-2-yl)carbamoyl)oxazol-2-yl)-3-methylbutyl)carbamate] |  |  | IC50 (C3aR; [5]): 1300 nM |
